Results taken from patent US20070004791A1, “3,6-disubstituted azabicyclo {3.1.0} hexane derivatives useful as muscarnic receptor antagonists” (priority 2002, published 2007).

What was measured:
M3 muscarinic receptor [1] = target: T1, M3 muscarinic receptor (Rattus norvegicus, UniProt P08483); assay: biochemical; conditions: Receptor Binding Assay M3 pKi
M2 muscarinic receptor = target: T2, M2 muscarinic receptor (Rattus norvegicus, UniProt P10980); assay: biochemical; assay type: binding; conditions: Receptor Binding Assay M2 pKi
T2 construct: Submandibular glands and heart were isolated and placed in ice cold homogenising buffer; from tissue; host or cells: rat heart membrane homogenate
T2 sequence (P10980 1-466): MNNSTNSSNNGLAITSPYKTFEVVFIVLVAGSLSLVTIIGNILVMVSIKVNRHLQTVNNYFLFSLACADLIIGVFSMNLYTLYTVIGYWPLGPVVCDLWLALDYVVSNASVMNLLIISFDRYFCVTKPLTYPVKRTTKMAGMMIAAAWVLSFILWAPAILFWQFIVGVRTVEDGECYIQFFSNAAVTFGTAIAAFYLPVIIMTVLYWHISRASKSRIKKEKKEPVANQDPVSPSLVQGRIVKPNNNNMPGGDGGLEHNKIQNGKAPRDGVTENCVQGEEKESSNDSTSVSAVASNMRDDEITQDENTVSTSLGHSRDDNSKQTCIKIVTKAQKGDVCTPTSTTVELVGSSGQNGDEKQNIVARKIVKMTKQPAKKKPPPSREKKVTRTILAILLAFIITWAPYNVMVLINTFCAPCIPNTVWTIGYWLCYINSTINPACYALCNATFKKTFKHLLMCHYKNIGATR

M3 muscarinic receptor [2] = target: T1, M3 muscarinic receptor
bladder pressure = assay: In vivo anaesthetized rabbit, carbachol-induced bladder pressure; conditions: bladder selectivity expressed as fold of selectivity of oxybutynin in the same model

T1 sequence (P08483 whole entry): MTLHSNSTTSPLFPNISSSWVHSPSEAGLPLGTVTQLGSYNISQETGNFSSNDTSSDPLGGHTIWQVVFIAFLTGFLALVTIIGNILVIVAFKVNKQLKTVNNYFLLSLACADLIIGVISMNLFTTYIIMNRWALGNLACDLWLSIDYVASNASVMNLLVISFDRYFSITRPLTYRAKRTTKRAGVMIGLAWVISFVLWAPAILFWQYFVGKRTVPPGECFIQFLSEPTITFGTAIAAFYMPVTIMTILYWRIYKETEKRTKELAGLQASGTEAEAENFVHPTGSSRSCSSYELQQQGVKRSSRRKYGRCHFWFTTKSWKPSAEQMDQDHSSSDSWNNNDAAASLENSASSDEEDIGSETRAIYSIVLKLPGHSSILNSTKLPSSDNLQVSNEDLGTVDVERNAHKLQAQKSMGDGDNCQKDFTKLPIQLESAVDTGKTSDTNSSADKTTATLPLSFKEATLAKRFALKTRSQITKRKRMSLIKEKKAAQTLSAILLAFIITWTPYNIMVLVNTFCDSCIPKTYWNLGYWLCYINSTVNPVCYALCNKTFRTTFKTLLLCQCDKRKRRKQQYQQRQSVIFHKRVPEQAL

Row | Structure (SMILES) | Ki (M3 muscarinic receptor [1]) [nM] | melting point [°C] | Ki (M2 muscarinic receptor) [nM] | Receptor Binding Assay Selectivity M2/M3 (M3 muscarinic receptor [2]) | Fold of Oxybutynin (bladder pressure)
1 | O=C(NC[C@@H]1[C@H]2CN(Cc3ccccc3)C[C@@H]12)C(O)(c1ccccc1)C1CCCC1 (stereo partly drawn) [Compound No. 3, (1α,5α,6α)-N-[3-benzyl-3-azabicyclo[3.1.0]hexyl-6(aminomethyl)-yl]-2-hydroxy-2-cyclopentyl-2-phenyl acetamide] | 5.89 | 131 to 134 | 95.5 | 16 | 
2 | O=C(NCC1C2CN(Cc3ccccc3)CC12)[C@@](O)(c1ccccc1)C1CCCC1.O=C(O)C(O)C(O)C(=O)O (stereo partly drawn) [Compound No. 36, (2S)-(−)-(1α,5α,6α)-N-[3-benzyl-3-azabicyclo[3.1.0]hexyl-6(aminomethyl)-yl]-2-hydroxy-2-cyclopentyl-2-phenylacetamide. L(+)-tartrate salt] |  |  |  |  | 2.17
3 | CC(C)=CCN1C[C@@H]2[C@@H](CNC(=O)C(O)(c3ccccc3)C3CCCCC3)[C@@H]2C1 (stereo partly drawn) [Compound No. 39, (1α,5α,6α)-N-[3-(3-methyl-2-butenyl)-3-azabicyclo[3.1.0]hexyl-6-(aminomethyl)yl]-2-hydroxy-2-cyclohexyl-2-phenylacetamide] | 4.37 |  | 16.2 | 3.7 | 
4 | CC(NC(=O)C(O)(c1ccccc1)C1CCCCC1)[C@H]1[C@@H]2CN(Cc3ccccc3)C[C@@H]21 (stereo partly drawn) [Compound No. 24, (1α,5α,6α)-N-[3-benzyl-3-azabicyclo[3.1.0]hexyl-6-(1-aminoethyl)-yl]-2-hydroxy-2-cyclohexyl-2-phenyl acetamide] | 30.9 |  | 275 | 8.9 | 
5 | O=C(NC[C@@H]1[C@H]2CN(Cc3ccccc3)C[C@@H]12)C(O)(c1ccccc1)c1ccccc1 [Compound No. 1, (1α,5α,6α)-N-[3-benzyl-3-azabicyclo[3.1.0]hexyl-6-(aminomethyl)-yl]-2-hydroxy-2,2-diphenyl acetamide] | 25.1 |  | 257 | 10 | 
6 | O=C(NCC1C2CN(Cc3ccccc3)CC12)[C@](O)(c1ccccc1)C1CCCC1.O=C(O)C(O)C(O)C(=O)O (stereo partly drawn) [Compound No. 35, (2R)-(+)-(1α,5α,6α)-N-[3-benzyl-3-azabicyclo[3.1.0]hexyl-6-(aminomethyl)-yl]-2-hydroxy-2-cyclopentyl-2-phenylacetamide. L(+)-tartrate salt] |  |  |  |  | 3.45
7 | CC(C)=CCCN1CC2C(CNC(=O)C(O)(c3ccccc3)C3CCCC3)C2C1 (stereo not drawn) [Compound No. 16, (1α,5α,6α)-N-[3-(4-methyl-3-pentenyl)-3-azabicyclo[3.1.0]hexyl-6-(aminomethyl)-yl]-2-hydroxy-2-cyclopentyl-2-phenyl acetamide] | 23.4 |  | 178 | 7.6 | 
